Experimental data published in ChEMBL document CHEMBL4138265, “Synthesis of a Chloroalkene Dipeptide Isostere-Containing Peptidomimetic and Its Biological Application” (ACS Med Chem Lett, 2018).

Columns and labels:
Integrin alpha-V/beta-3 [1] = molecular target: T1, Integrin alpha-V/beta-3 (Homo sapiens, UniProt P05106+P06756); experiment: Inhibition of vitronectin binding to human integrin alphaVbeta3 measured after 4 hrs by ELISA; format: protein-complex assay
Integrin alpha-V/beta-3 [2] = molecular target: T1, Integrin alpha-V/beta-3; experiment: Inhibition of vitronectin binding to integrin alphaVbeta3 in HDF pretreated for 20 mins followed by vitronectin addition measured after 40 mins by crystal violet staining based assay; format: protein-complex assay
[3] = Stability in human serum at 1 mM incubated for 15 mins measured up to 180 mins by RP-HPLC method; format: ADME, cell-free; conditions: 0.25 h, 1000 µM

T1 sequence (P05106 27-788 limits assumed): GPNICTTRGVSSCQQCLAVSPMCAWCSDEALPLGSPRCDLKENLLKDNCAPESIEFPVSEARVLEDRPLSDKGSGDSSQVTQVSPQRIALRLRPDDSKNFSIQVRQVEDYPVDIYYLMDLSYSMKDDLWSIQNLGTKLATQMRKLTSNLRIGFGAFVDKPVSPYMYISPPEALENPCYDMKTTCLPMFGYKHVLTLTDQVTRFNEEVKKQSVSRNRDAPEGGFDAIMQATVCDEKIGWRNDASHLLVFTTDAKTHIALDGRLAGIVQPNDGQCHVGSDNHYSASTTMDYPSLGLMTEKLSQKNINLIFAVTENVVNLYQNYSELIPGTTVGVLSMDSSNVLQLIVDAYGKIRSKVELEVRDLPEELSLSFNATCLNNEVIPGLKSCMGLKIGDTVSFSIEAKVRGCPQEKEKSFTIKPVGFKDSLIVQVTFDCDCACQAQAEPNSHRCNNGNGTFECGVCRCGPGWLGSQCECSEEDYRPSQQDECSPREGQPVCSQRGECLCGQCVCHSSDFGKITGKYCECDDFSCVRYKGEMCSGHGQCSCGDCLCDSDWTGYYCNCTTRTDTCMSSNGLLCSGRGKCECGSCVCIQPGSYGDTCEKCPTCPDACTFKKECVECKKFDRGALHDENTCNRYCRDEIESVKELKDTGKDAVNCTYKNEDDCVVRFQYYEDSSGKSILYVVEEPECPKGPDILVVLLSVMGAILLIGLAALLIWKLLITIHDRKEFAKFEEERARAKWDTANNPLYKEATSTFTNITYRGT
T1 sequence (P06756 31-889 limits assumed): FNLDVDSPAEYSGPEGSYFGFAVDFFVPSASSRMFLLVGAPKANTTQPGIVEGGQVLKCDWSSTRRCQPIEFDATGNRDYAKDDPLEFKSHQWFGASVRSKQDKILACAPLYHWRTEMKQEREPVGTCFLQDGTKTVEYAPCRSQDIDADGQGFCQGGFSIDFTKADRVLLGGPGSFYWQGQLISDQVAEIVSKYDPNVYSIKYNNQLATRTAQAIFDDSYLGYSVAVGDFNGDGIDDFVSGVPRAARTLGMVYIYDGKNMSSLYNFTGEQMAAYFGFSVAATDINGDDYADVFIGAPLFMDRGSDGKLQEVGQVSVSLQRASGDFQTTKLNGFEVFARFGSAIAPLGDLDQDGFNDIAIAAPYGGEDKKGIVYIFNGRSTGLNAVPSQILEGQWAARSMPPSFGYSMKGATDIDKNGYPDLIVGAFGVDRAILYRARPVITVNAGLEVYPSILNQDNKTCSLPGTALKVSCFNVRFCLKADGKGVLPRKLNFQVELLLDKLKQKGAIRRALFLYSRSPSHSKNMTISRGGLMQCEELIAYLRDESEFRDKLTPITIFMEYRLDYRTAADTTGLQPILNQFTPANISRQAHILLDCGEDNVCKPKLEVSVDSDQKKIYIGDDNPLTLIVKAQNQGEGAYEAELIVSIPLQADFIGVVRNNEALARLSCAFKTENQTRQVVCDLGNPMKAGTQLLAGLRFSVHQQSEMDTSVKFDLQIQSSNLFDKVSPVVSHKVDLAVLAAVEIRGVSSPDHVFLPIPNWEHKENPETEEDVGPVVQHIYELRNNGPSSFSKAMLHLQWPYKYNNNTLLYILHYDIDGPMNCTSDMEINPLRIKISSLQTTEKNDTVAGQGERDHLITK
T1 sequence (P06756 891-1048 limits assumed): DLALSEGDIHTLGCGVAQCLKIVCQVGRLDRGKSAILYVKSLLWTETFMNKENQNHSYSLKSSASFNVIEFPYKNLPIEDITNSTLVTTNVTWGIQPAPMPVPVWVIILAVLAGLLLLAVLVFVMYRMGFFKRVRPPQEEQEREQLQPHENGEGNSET

Row | IC50 (Integrin alpha-V/beta-3 [1]) [nM] | IC50 (Integrin alpha-V/beta-3 [2]) [nM] | Stability [3] | Structure (SMILES)
1 | 3.6 | – | – | CC(C)[C@@H]1/C=C/[C@@H](Cc2ccccc2)NC(=O)[C@H](CC(=O)O)NC(=O)CNC(=O)[C@H](CCCNC(=N)N)NC1=O
2 | 2.4 | – | – | C/C1=C\[C@@H](Cc2ccccc2)NC(=O)[C@H](CC(=O)O)NC(=O)CNC(=O)[C@H](CCCNC(=N)N)NC(=O)[C@@H]1C(C)C
3 | – | 0.497 | Stable | CC(C)[C@@H]1/C=C(\Cl)[C@@H](Cc2ccccc2)NC(=O)[C@H](CC(=O)O)NC(=O)CNC(=O)[C@H](CCCNC(=N)N)NC1=O
